Test results published in US20100015240A1, “PROCESS FOR PREPARING MICROPARTICLES CONTAINING BIOACTIVE PEPTIDES” (priority 2008, published 2010).

Assay: Peptide solubility in polyols estimated by visual observation of solutions
Format: physicochemical
Conditions: solvent propylene glycol
Excerpt: Solubilities at various concentration ranges were estimated based on visual observations of solutions prepared at the indicated peptide concentration levels listed in Table II.

Measured: Peptide solubility at specified concentration level

C[C@@H](O)[C@@H]1NC(=O)[C@H](CCCCN)NC(=O)[C@@H](Cc2c[nH]c3ccccc23)NC(=O)[C@H](Cc2ccccc2)NC(=O)[C@@H](NC(=O)[C@H](N)Cc2ccccc2)CSSC[C@@H](C(=O)N[C@H](CO)[C@@H](C)O)NC1=O [Octreotide]
Soluble: 100 mg/mL | <10 mg/mL | at 10 mg/mL
